From US20230348376A1 (TEIJIN PHARMA LIMITED, priority 2020, published 2023)

What was measured:
[1] = tested on: rat oligodendrocyte progenitor cells; experiment: Promotive activity of rat oligodendrocyte progenitor cell differentiation-2 (immunostaining of MBP); format: cell-based; settings: Test 2; vitamin D derivative 2 μM, T3 30 nM; 4 days
Summary of the method: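 Rat OPCs prepared by shaking in separation medium about 22 h at 37 °C, 200 rpm, and collecting the supernatant.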

[2] = tested on: mouse neural stem cells (NSCs); experiment: Promoting activity in oligodendrocyte differentiation of mouse neural stem cell (GalC immunostaining); format: cell-based; settings: day 10, N=5
Description: To NSC basal medium (100 mL) included in this product, B27 (1 mL), Penicillin-Streptomycin (1 mL), Glutamine (1 mL), bFGF (20 μL), EGF (10 μL), and Heparin (100 μL) were added to prepare the growth medium. Mouse neural stem cells were reconstituted in a T-25 flask using the growth medium and proliferated as a neurosphere by suspension culture. The cells were expanded by passaging at a split ratio=1:2 in a CO2 incubator (5% CO2, 37° C., wet) to obtain the required number of cells. ACCUTASE (Innovative Cell Technologies, Cat. No. AT104) was used as the passage reagent.
The differentiation medium containing test substance was prepared to a target final concentration by diluting a solution of 20 mM compound in DMSO to 10-fold with DMSO and then to 2×10^5-fold with the differentiation medium. Additive-free differentiation medium for control was prepared by diluting DMSO to 2×10^5-fold with the differentiation medium to be a final concentration of 5×10^−5%.
The mouse neural stem cells were seeded on a poly-L-Lysine/Laminin-coated 96-well plate at a cell density of 2.0×10^4 cells/100 μL/well using the differentiation medium and the culture was started in a CO2 incubator (5% CO2, 37° C., wet). The next day, the medium was replaced with the differentiation medium containing a test substance or an additive-free differentiation medium for control, and evaluation of the test substance (N=5) was started (day 0). The medium was replaced every other day by 60% of the medium in the wells. On day 10, cells were fixed and immunostained.
After the medium was removed, the cells were fixed by adding 100 μL of 4% paraformaldehyde-PBS and being incubated at room temperature for 30 minutes. Next, the cells were washed 3 times with PBS, 100 μL of 5% Goat Serum/PBS was added thereto, and the mixture was incubated at room temperature for 30 minutes to perform blocking and membrane permeation treatment. […] After the cells were washed 3 times with PBS, 100 μL of PBS was added to the wells, and the wells were photographed with fluorescence microscopy. Images were taken under the same condition in all wells, and blue fluorescence and green fluorescence were simultaneously photographed.
Using the hybrid cell counting software provided in the fluorescence microscope (Keyence, BZ-X700), co-localized spots of green fluorescence and blue fluorescence were extracted, and the number of these spots was defined as the total number of GalC-positive cells, and the oligodendrocyte differentiation ratio was calculated by the following calculation:the total number of GalC-positive cells/the number of nuclei (number of blue fluorescence spots). A significant difference test was performed by t-test between the additive-free group and the sample-added group.

mouse cuprizone model = experiment: Myelin regeneration promoting action in mouse cuprizone model (LFB staining of corpus callosum); format: in vivo; settings: 20 μg/kg oral once a day, 4 weeks after 6 weeks cuprizone diet; untreated = 100%
From the text: C57BL/6J mice (8 weeks old, male) were fed a diet containing 0.3% cuprizone (bis(cyclohexanone)oxaldihydrazone) (Research Diets, Inc. #D17042709) for 6 weeks to induce demyelination. Subsequently, the mice were divided into groups of 8 mice based on the body weight, the diet was switched to a cuprizone-free diet (Research Diets, Inc. #D10001), and administration of the test compound or vehicle was started. […] After administration of 4 weeks, the mice were euthanized, perfused with a 4% paraformaldehyde solution, and then brain sampling was performed. The brain sample obtained was embedded in paraffin to prepare a coronal section specimen at Bregma+1. The specimen was stained with Luxor Fast Blue (LFB) to visualize the myelin sheath, and images were acquired using a fluorescence microscope (KEYENCE #BZ-X710). The corpus callosum area and the LFB staining positive area in the corpus callosum of the obtained pathological specimen image were measured using an image analysis application (KEYENCE #BZ-H3C/BZ-H3XD), and the ratio (LFB staining positive area in the corpus callosum/corpus callosum area) was calculated. The intact group is a non-pathogenic group, and the […] control group were sampled after feeding the diet containing 0.3% cuprizone for 6 weeks.
In the table, the ratio of LFB staining positive area in the corpus callosum/corpus callosum area of the untreated group, fed with the cuprizone-free diet for 6 weeks, was regarded as 100%. As a result, the control group, fed with the cuprizone-containing diet for 6 weeks, decreased the ratio to 23.6%, and was confirmed to progress demyelination. The group, in which the cuprizone-containing diet was fed for 6 weeks and switched to the cuprizone-free diet, and the vehicle was administered, improved the ratio of area of LFB staining positive/area of corpus callosum to 50.1%. […] In addition, GSK239512 described in WO2013/107336 pamphlet was evaluated in the test to show the ratio of LFB staining positive area/corpus callosum area of 45.8%, in which no demyelination regeneration promoting action was shown as compared with the vehicle-administered group.

With `C[C@H](CCN1CCOCC1)[C@H]1CC[C@H]2/C(=C/C=C3C[C@@H](O)C[C@H](O)C3)CCC[C@]12C` [Compound D023, (1R,3R)-5-(2-((1R,3aS,7aR,E)-7a-methyl-1-((R)-4-morpholinobutan-2-yl)octahydro-4H-inden-4-ylidene)ethylidene)cyclohexane-1,3-diol] the “Mean (number of MBP-positive cells/number of Hoechst33342-positive cells)” value [1] was 0.36, the “Gal/C positive ratio Average value” ([2]; 10 nM) was 8.63 and the “Gal/C positive ratio Average value” ([2]; 100 nM) was 11.51. The “Gal/C positive ratio Average value” ([2]; 1000 nM) was 12.19 and the “Ratio (%): area of LFB staining positive/area of corpus callosum, mean” value (mouse cuprizone model) was 87.0%.
